Source: patent US10294202B2, “Pyrrolidinones as herbicides” (FMC Corporation, priority 2013, dated 2019)

Experiments:
[1] = system: kochia; test: Test A pre-/postemergence herbicide test; type: in vivo, Kochia scoparia; conditions: for Plant response rating, Kochia: 0 to 100 scale
In short: (§1)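 Seeds in loam–sand blend received preemergence directed soil spray; separately, plants 2–10 cm at one- to two-leaf stage received postemergence spray, both with test chemicals in non-phytotoxic solvent with surfactant. After ~10 days in greenhouse, injury rated visually against untreated controls, 0 (no effect) to 100 (complete control).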

[2] = system: barnyardgrass; test: Test B flooded paddy test; type: in vivo, Echinochloa crus-galli; conditions: 500 g ai/ha, Flood; scale of 0 to 100 where 0 is no effect and 100 is complete control
In short: (§2)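 Plants were grown to the 2-leaf stage, then pots were flooded to 3 cm above the soil and compound was applied directly into the paddy water, with that depth held throughout. After 13 to 15 days in a greenhouse, injury was rated visually against untreated controls on a 0 to 100 scale (100 = complete control).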

[3] = system: blackgrass; test: Test A postemergence herbicide test; type: in vivo, Alopecurus myosuroides; conditions: for Plant response rating, Blackgrass: 125 g ai/ha, 0 to 100 scale, 0 is no effect, 100 is complete control; for Blackgrass plant response rating (0 to 100 scale, 0 is no effect, 100 is complete control): 500 g ai/ha
In short: (§3)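 Plants at the one- to two-leaf stage, 2–10 cm tall, grown in loam/sand pots, received postemergence sprays of the test chemicals. After about 10 days in the greenhouse, injury was scored visually against untreated controls on a 0–100 scale (0 none, 100 complete control).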

[4] = system: barnyardgrass; test: Test A pre-/postemergence herbicide test; type: in vivo, Echinochloa crus-galli
In short: as §1

[5] = system: corn; test: Test A pre-/postemergence herbicide test; type: in vivo, Zea mays; conditions: Postemergence; for Plant response rating, Corn: 125 g ai/ha, 0 to 100 scale, 0 is no effect, 100 is complete control; for Corn plant response rating (0 to 100 scale, 0 is no effect, 100 is complete control): 500 g ai/ha
In short: as §1

[6] = system: wheat; test: Test A pre-/postemergence herbicide test; type: in vivo, Triticum aestivum; conditions: Postemergence; for Plant response rating, Wheat: 125 g ai/ha, 0 to 100 scale, 0 is no effect, 100 is complete control; for Wheat plant response rating (0 to 100 scale, 0 is no effect, 100 is complete control): 500 g ai/ha
In short: as §1

[7] = system: pigweed; test: Test A pre-/postemergence herbicide test; type: in vivo, Amaranthus retroflexus; conditions: for Plant response rating, Pigweed: 0 to 100 scale
In short: as §1

[8] = system: ducksalad; test: Test B flooded paddy test; type: in vivo, Heteranthera limosa; conditions: 500 g ai/ha, Flood; scale of 0 to 100 where 0 is no effect and 100 is complete control
In short: as §2

[9] = system: ryegrass, Italian; test: Test A pre-/postemergence herbicide test; type: in vivo, Lolium multiflorum; conditions: for Plant response rating, Ryegrass, Italian: 0 to 100 scale
In short: as §1

[10] = system: giant foxtail; test: Test A pre-/postemergence herbicide test; type: in vivo, Setaria faberii; conditions: for Plant response rating, Foxtail, Giant: 0 to 100 scale
In short: as §1

[11] = system: sedge, umbrella; test: Test B flooded paddy test; type: in vivo, Cyperus difformis; conditions: 500 g ai/ha, Flood; scale of 0 to 100 where 0 is no effect and 100 is complete control
In short: as §2

[12] = system: galium; test: Test A postemergence herbicide test; type: in vivo, Galium aparine; conditions: for Plant response rating, Galium: 125 g ai/ha, 0 to 100 scale, 0 is no effect, 100 is complete control; for Galium plant response rating (0 to 100 scale, 0 is no effect, 100 is complete control): 500 g ai/ha
In short: as §3

[13] = system: rice; test: Test B flooded paddy test; type: in vivo, Oryza sativa; conditions: 500 g ai/ha, Flood; scale of 0 to 100 where 0 is no effect and 100 is complete control
In short: as §2

[14] = system: ragweed; test: Test A pre-/postemergence herbicide test; type: in vivo, Ambrosia elatior; conditions: for Plant response rating, Ragweed: 0 to 100 scale
In short: as §1

[15] = 125 g ai/ha, visual rating, 0 no effect, 100 complete control, approximately 10 days, preemergence
[16] = Postemergence, 125 g ai/ha, 0 is no effect, 100 is complete control
[17] = preemergence, 500 g ai/ha, 0 is no effect and 100 is complete control
[18] = 125 g ai/ha, visual rating, 0 to 100 scale, 0 no effect, 100 complete control, approximately 10 days, preemergence
[19] = Postemergence, 125 g ai/ha, 0 to 100 scale, 0 is no effect, 100 is complete control
[20] = preemergence, 500 g ai/ha, 0 to 100 scale (0 no effect, 100 complete control)

SMILES	Plant response rating, Kochia [1, 15]	Plant response rating, Kochia [1, 16]	Kochia plant response rating (0 to 100 scale, 0 is no effect, 100 is complete control) ([1]; Postemergence, 500 g ai/ha)	Plant response rating, Kochia [1, 17]	Plant response rating, Barnyardgrass [2]	Plant response rating, Blackgrass [3]	Blackgrass plant response rating (0 to 100 scale, 0 is no effect, 100 is complete control) [3]	Plant response rating, Barnyardgrass [4, 18]	Plant response rating, Barnyardgrass [4, 19]	Barnyardgrass plant response rating (0 to 100 scale, 0 is no effect, 100 is complete control) ([4]; Postemergence, 500 g ai/ha)	Plant response rating, Barnyardgrass [4, 20]	Plant response rating, Corn [5]	Corn plant response rating (0 to 100 scale, 0 is no effect, 100 is complete control) [5]	Plant response rating, Wheat [6]	Wheat plant response rating (0 to 100 scale, 0 is no effect, 100 is complete control) [6]	Plant response rating, Pigweed [7, 15]	Plant response rating, Pigweed [7, 16]	Pigweed plant response rating (0 to 100 scale, 0 is no effect, 100 is complete control) ([7]; Postemergence, 500 g ai/ha)	Plant response rating, Pigweed [7, 17]	Plant response rating, Ducksalad [8]	other results
O=C1NCC(c2cccc(C(F)F)c2)C1C(=O)Nc1ccc(F)c(F)c1F (racemic) [Compound 165]	70	50	70	70	75	60	70	90	90	90	90	60	80	30	70	50	30	50	70	100	Plant response rating, Ryegrass, Italian [9, 15]: 0; Plant response rating, Ryegrass, Italian [9, 16]: 40; Ryegrass, Italian plant response rating (0 to 100 scale, 0 is no effect, 100 is complete control) ([9]; Postemergence, 500 g ai/ha): 50; Plant response rating, Ryegrass, Italian [9, 17]: 20; Plant response rating, Foxtail, Giant [10, 15]: 90; Plant response rating, Foxtail, Giant [10, 16]: 70; Foxtail, Giant plant response rating (0 to 100 scale, 0 is no effect, 100 is complete control) ([10]; Postemergence, 500 g ai/ha): 90; Plant response rating, Foxtail, Giant ([10]; preemergence, 500 g ai/ha): 90; Plant response rating, Sedge, Umbrella [11]: 0; Plant response rating, Galium [12]: 40; Galium plant response rating (0 to 100 scale, 0 is no effect, 100 is complete control) [12]: 50; Plant response rating, Rice [13]: 10; Plant response rating, Ragweed [14, 15]: 0; Plant response rating, Ragweed [14, 16]: 20; Ragweed plant response rating (0 to 100 scale, 0 is no effect, 100 is complete control) ([14]; Postemergence, 500 g ai/ha): 50; Plant response rating, Ragweed [14, 17]: 80
O=C1NCC(c2cccc(C3CC3)c2)C1C(=O)Nc1ccccc1F (racemic) [Compound 166]	30	30	70	70	75	50	60	80	80	80	90	30	80	20	50	0	40	50	10	100	Plant response rating, Ryegrass, Italian [9, 15]: 20; Plant response rating, Ryegrass, Italian [9, 16]: 0; Ryegrass, Italian plant response rating (0 to 100 scale, 0 is no effect, 100 is complete control) ([9]; Postemergence, 500 g ai/ha): 50; Plant response rating, Ryegrass, Italian [9, 17]: 60; Plant response rating, Foxtail, Giant [10, 15]: 90; Plant response rating, Foxtail, Giant [10, 16]: 80; Foxtail, Giant plant response rating (0 to 100 scale, 0 is no effect, 100 is complete control) ([10]; Postemergence, 500 g ai/ha): 90; Plant response rating, Foxtail, Giant ([10]; preemergence, 500 g ai/ha): 90; Plant response rating, Sedge, Umbrella [11]: 0; Plant response rating, Galium [12]: 20; Galium plant response rating (0 to 100 scale, 0 is no effect, 100 is complete control) [12]: 60; Plant response rating, Rice [13]: 0; Plant response rating, Ragweed [14, 15]: 0; Plant response rating, Ragweed [14, 16]: 0; Ragweed plant response rating (0 to 100 scale, 0 is no effect, 100 is complete control) ([14]; Postemergence, 500 g ai/ha): 0; Plant response rating, Ragweed [14, 17]: 50
O=C1NCC(c2cccc(C3CC3)c2)C1C(=O)Nc1cccc(F)c1F (racemic) [Compound 167]	20	30	50	60	75	50	60	90	90	90	90	0	70	0	50	50	0	0	50	100	Plant response rating, Ryegrass, Italian [9, 15]: 20; Plant response rating, Ryegrass, Italian [9, 16]: 20; Ryegrass, Italian plant response rating (0 to 100 scale, 0 is no effect, 100 is complete control) ([9]; Postemergence, 500 g ai/ha): 40; Plant response rating, Ryegrass, Italian [9, 17]: 70; Plant response rating, Foxtail, Giant [10, 15]: 90; Plant response rating, Foxtail, Giant [10, 16]: 90; Foxtail, Giant plant response rating (0 to 100 scale, 0 is no effect, 100 is complete control) ([10]; Postemergence, 500 g ai/ha): 90; Plant response rating, Foxtail, Giant ([10]; preemergence, 500 g ai/ha): 90; Plant response rating, Sedge, Umbrella [11]: 0; Plant response rating, Galium [12]: 50; Galium plant response rating (0 to 100 scale, 0 is no effect, 100 is complete control) [12]: 60; Plant response rating, Rice [13]: 10; Plant response rating, Ragweed [14, 15]: 0; Plant response rating, Ragweed [14, 16]: 20; Ragweed plant response rating (0 to 100 scale, 0 is no effect, 100 is complete control) ([14]; Postemergence, 500 g ai/ha): 50; Plant response rating, Ragweed [14, 17]: 50
O=C1NCC(c2cccc(C3CC3)c2)C1C(=O)Nc1ccc(F)c(F)c1F (racemic) [Compound 168]	40	40	60	60	65	40	60	90	90	90	90	30	70	0	40	40	0	40	50	100	Plant response rating, Ryegrass, Italian [9, 15]: 0; Plant response rating, Ryegrass, Italian [9, 16]: 20; Ryegrass, Italian plant response rating (0 to 100 scale, 0 is no effect, 100 is complete control) ([9]; Postemergence, 500 g ai/ha): 50; Plant response rating, Ryegrass, Italian [9, 17]: 40; Plant response rating, Foxtail, Giant [10, 15]: 90; Plant response rating, Foxtail, Giant [10, 16]: 90; Foxtail, Giant plant response rating (0 to 100 scale, 0 is no effect, 100 is complete control) ([10]; Postemergence, 500 g ai/ha): 90; Plant response rating, Foxtail, Giant ([10]; preemergence, 500 g ai/ha): 90; Plant response rating, Sedge, Umbrella [11]: 0; Plant response rating, Galium [12]: 60; Galium plant response rating (0 to 100 scale, 0 is no effect, 100 is complete control) [12]: 70; Plant response rating, Rice [13]: 0; Plant response rating, Ragweed [14, 15]: 0; Plant response rating, Ragweed [14, 16]: 0; Ragweed plant response rating (0 to 100 scale, 0 is no effect, 100 is complete control) ([14]; Postemergence, 500 g ai/ha): 20; Plant response rating, Ragweed [14, 17]: 50
